Data: US10292999B2, “Treatment of enteric stress from heat and infection in humans and animals by supplementation with zinc and butyric acid” (Kemin Industries, Inc., priority 2015, dated 2019)

Assays:
IPEC-J2 cells [1] = experiment: Trans-epithelial resistance (TER) of IPEC-J2 cells under heat stress; type: cell-based, pig; settings: 300 μM, heat stress 41.5° C.; for trans-epithelial resistance versus un-treated heat stress cells: FIG. 2
Description: FIG. 2 is a chart of the effect of 300 μM concentration of different test compounds on the transepithelial resistance (TER) values of IPEC-J2 cells under heat stress conditions.
When animals undergo heat stress, the increased temperature leads to damage of the epithelial layer as well as withdrawal of tight junction proteins to the cytoplasm of the epithelial cells, thus compromising the tight junctions. The compromised tight junctions allow for toxins and other inflammatory substances to enter the systemic circulation. […] As reported in FIG. 2, cells were treated with the test compounds and incubated at 41.5° C. (Con-TN) Control-Thermoneutral conditions—37° C. (CON—HS)—Control-Heat Stress conditions—41.5° C. (Zn Sulf) 300 μM Zinc Sulfate under Heat Stress Conditions—41.5° C. (ZBA) 300 μM ZBA under Heat Stress Conditions—41.5° C. (CaBA) 300 μM Calcium and Butyric Acid Salt under Heat Stress Conditions—41.5° C.

IPEC-J2 cells [2] = settings: 1 mM, normal conditions, vs control, FIG. 1

| Compound | trans-epithelial resistance versus un-treated heat stress cells (IPEC-J2 cells [1]) | trans-epithelial resistance (TER), 0 h (IPEC-J2 cells [1]) | trans-epithelial resistance (TER), 12 h (IPEC-J2 cells [1]) | trans-epithelial resistance (TER), 24 h (IPEC-J2 cells [1]) | trans-epithelial resistance (TER), 36 h (IPEC-J2 cells [1]) | trans-epithelial resistance (TER), 48 h (IPEC-J2 cells [1]) | trans-epithelial resistance (IPEC-J2 cells [2]) |
| --- | --- | --- | --- | --- | --- | --- | --- |
| Calcium and Butyric Acid Salt [Calcium Butyric Acid Salt] | do not improve the trans-epithelial resistance | 1.00 | 1.58 | 1.74 | 1.96 | 2.10 | – |
| CCCC(=O)[O-].CCCC(=O)[O-].[Zn+2] [ZBA, zinc salt of butyric acid in a molar ratio of 1:2] | improves the trans-epithelial resistance to the level of cells grown that are grown at thermoneutral conditions | 1.00 | 2.04 | 2.24 | 2.60 | 2.76 | increased trans-epithelial resistance |
| O=S(=O)([O-])[O-].[Zn+2] [Zinc Sulfate] | do not improve the trans-epithelial resistance | 1.00 | 1.67 | 1.89 | 2.19 | 2.31 | – |
